According to PMC4372538, “Advantages of the Phosphatidylserine-Recognizing Peptide PSP1 for Molecular Imaging of Tumor Apoptosis Compared with Annexin V” (PLoS ONE, 2015):
“Also recorded” adds a separate entry of the source. Where no end group is shown, it is not given here.

Key:
[1] = system: H460 tumors; experiment: TUNEL staining of tumors; format: in vivo, BALB/c nude mice; human H460 tumor; settings: camptothecin 10 mg/kg single dose
Experimental: (§1) Female nude mice (BALB/c nude; body weight, 20±3 g; n = 5) were housed in a specific pathogen-free environment at 22±2°C and 55±5% relative humidity with light. Tumors were generated by subcutaneously injecting H460 cells (5×10^6 cells) into the right shoulder of 6-wk-old female BALB/c nude mice and allowing them to grow for 3 weeks (size of 0.5 to 0.7 cm). For in vivo analysis of tumor targeting, the tumor-bearing mice were either treated or not treated with a single dose of camptothecin (10 mg/kg) 24 hrs prior to intravenous injection of Cy7.5-labeled PSP1, Cy7.5-annexin V or Cy7.5-labeled control peptide into the tail vein under inhalational anesthesia (1% (w/v) isoflurane in 2 L oxygen).
At the 6 hr time point, the animals were euthanized with CO2, and tumor tissues were removed from a subset of animals. The tumor tissues were then fixed by incubating with 4% paraformaldehyde (PFA) overnight, followed by freezing for cryosectioning and immunohistochemical studies under a fluorescence microscope (Zeiss, Oberkochen, Germany). Apoptosis in the tumor tissues was assessed by […] terminal deoxynucleotidyl transferase-mediated dUTP nick-end labelling (TUNEL) staining in accordance with the manufacturer’s instructions (Chemicon Int., Temecula, CA, USA).

[2] = biological target: PS liposomes; experiment: SPR binding to PS liposomes
From the text: To compare the kinetics of annexin V and PSP1 peptide binding to PS liposomes, SPR spectroscopy was employed (Reichert Inc, NY, USA). PC and PS liposomes (0.8:0.2 PC:PS) were generated as previously described and were homogenously purified using a liposome mini-extruder with a 100 nm membrane filter, based on the manufacturer’s protocol (Avanti Polar Lipids). […] Briefly, phytosphingosine was immobilized by activating the carboxymethyl groups on dextran-coated chips (Reichert Life Sciences) through a reaction with N-hydroxysuccinimide (Sigma-Aldrich), followed by covalent bonding of the ligands to the chip surface via amide linkages and blocking of excess activated carboxyls with ethanolamine. The purified PS or PC liposomes were captured on the phytosphingosine layer at a flow rate of 5 μl/min in liposome immobilization buffer (10 mM Tris-HCl (pH 8.0), 100 mM NaCl, and 2 mM CaCl2). To use the PC-immobilized surface as a control, the injected PS or PC liposome volume was adjusted to an immobilization level of approximately 4000±200 RU. Different concentrations of the PSP1 peptide (0.313 to 5 μM) and annexin V (3.13 to 100 nM) in running buffer (10 mM Tris-HCl (pH 8.0), 100 mM NaCl, 2 mM CaCl2, and 62.5 μg/ml BSA) were allowed to flow over the surfaces bound to the immobilized liposomes for 3 min at a rate of 30 μl/min. The sensor surface was regenerated after each association and dissociation cycle by injecting 10 mM EDTA for 20 s, followed by 50 mM NaOH for 10 s. The interaction of the ligand and the analyte was analyzed using Scrubber 2 Biologic software (http://www.biologic.com.au/). The binding kinetics was assessed by determining the association (kon), dissociation (koff), and equilibrium (KD) constants.
The in vitro binding affinity of PSP1 and annexin V for PS was further examined using SPR analysis (Fig. 2). […] We immobilized PS liposomes on the surface of an SPR chip, applied a series of different concentrations of PSP1 or annexin V, and examined the binding kinetics. PS-specific binding was determined by subtracting binding responses to a PC liposome-coated surface from those obtained using a PS liposome-coated […] surface.
Fig 2 In vitro SPR analysis of PSP1 and annexin V binding to PS liposomes. (A) The indicated concentrations of PSP1 were injected onto the liposome-immobilized surface. Responses (RU) from the PC liposome-coated surface (reference) were subtracted from those from the PS:PC (2:8) liposome surface to monitor PS-specific binding. The equilibration binding constant (KD) and the association (Kon) and dissociation (Koff) rate constants were estimated using the Scrubber program. (B) Plots of the RU values of annexin V at the indicated concentrations.

[3] = system: apoptotic H460 cells; experiment: FACS binding to apoptotic H460 cells; format: cell-based, human; settings: FITC-labeled; for binding of PSP1 mutants to apoptotic H460 cells (FACS): 10 μg/ml, vs PSP1, 4°C, n = 3
Experimental: (§2) The human lung cancer cell H460, which was obtained from the American Type Culture Collection (ATCC), was maintained in RPMI-1640 media supplemented with 10% heat-inactivated fetal bovine serum (FBS) and penicillin G/streptomycin at 37°C in a humidified atmosphere of 95% air and 5% CO2.
(§3) To induce apoptosis of lung tumor cells (H460), the cells (5×10^6 cell) were grown overnight and then treated with etoposide (50 μM) (Sigma) in serum-free media for 22 hrs, followed by washing with phosphate-buffered saline (PBS) and binding buffer (10 mM Hepes (pH 7.4), 150 mM NaCl, and 2 mM CaCl2).
(§4) Control peptide (grey); FITC-NSSSVDK.

[4] = system: apoptotic H460 cells; experiment: confocal microscopy of binding to apoptotic H460 cells; format: cell-based, human; settings: FITC-labeled, 20 μg/ml, apoptotic H460 (etoposide 50 μM), 4°C, 1 hr
[5] = system: untreated cancer cells; experiment: binding to normal (untreated) cancer cells, microscopy; format: cell-based, human; settings: 40 μg/ml; data not shown
Experimental: (A) Apoptotic H460 cells in a chamber slide were incubated with 20 μg of PSP1, control peptide, or annexin V for 30 min. The cells were washed and fixed with 4% PFA before staining with DAPI. The confocal images were taken by laser confocal microscopy. (B) Normal H460 cells were subjected to incubation with the same amount of peptide or annexin V.

[6] = system: apoptotic tumor cells in H460 tumor-bearing mice; experiment: in vivo fluorescence imaging of tumors after apoptosis induction; design: species or system BALB/c nude mice; human H460 tumor; settings: for in vivo tumor homing: i.v., camptothecin-treated H460 tumor-bearing mice, n = 5, imaging 10 min to 12 h, PSP1 10 μg/200 μl, annexin V and control peptide 100 μg/200 μl
Experimental: as §1
In vivo fluorescence images were taken at different time intervals after peptide injection (10 min, 1 h, 3 h, 6 h, and 12 h) using an eXplore Optix system (ART Advanced Research Technologies Inc., Montreal, Canada), which has excitation/emission wavelengths of 778 nm/805 nm. The obtained images were processed using eXplore Optix OptiView Software and normalized based on the baseline fluorescence, assessed for each mouse prior to peptide injection.
Fig 4 In vivo imaging of tumors after apoptosis induction. (A) Cy7.5-labelled PSP1peptide, control peptide, or annexin V was systematically injected into the tail vein of tumor-bearing nude mice treated with camptothecin 24 hrs before injection. The same amount of annexin V was also injected into non-camptothecin-treated tumor-bearing mice as a control. The homing of the peptides was examined after the indicated times using an optical imaging system. The white dotted circles indicate the tumors. (B) Histological examination of tumor tissues after homing of PSP1 and annexin V, performed under a fluorescence microscope. Tumor cell apoptosis was observed by TUNEL staining.

[7] = system: apoptotic cells in tumor tissue; experiment: histological examination of tumor tissues after in vivo homing; design: species or system BALB/c nude mice; human H460 tumor; settings: Cy7.5-labeled, i.v., tumors removed at 6 hr, camptothecin-treated mice
Experimental: At the 6 hr time point, the animals were euthanized with CO2, and tumor tissues were removed from a subset of animals. The tumor tissues were then fixed by incubating with 4% paraformaldehyde (PFA) overnight, followed by freezing for cryosectioning and immunohistochemical studies under a fluorescence microscope (Zeiss, Oberkochen, Germany). Apoptosis in the tumor tissues was assessed by […] terminal deoxynucleotidyl transferase-mediated dUTP nick-end labelling (TUNEL) staining in accordance with the manufacturer’s instructions (Chemicon Int., Temecula, CA, USA).  Fig 4 In vivo imaging of tumors after apoptosis induction. (A) Cy7.5-labelled PSP1peptide, control peptide, or annexin V was systematically injected into the tail vein of tumor-bearing nude mice treated with camptothecin 24 hrs before injection. The same amount of annexin V was also injected into non-camptothecin-treated tumor-bearing mice as a control. The homing of the peptides was examined after the indicated times using an optical imaging system. The white dotted circles indicate the tumors. (B) Histological examination of tumor tissues after homing of PSP1 and annexin V, performed under a fluorescence microscope. Tumor cell apoptosis was observed by TUNEL staining.

[8] = phage display; ref [17]; cited from earlier work
[9] = system: normal H460 cells; experiment: FACS binding to normal H460 cells; format: cell-based, human; settings: FITC-labeled, 10 μg/ml; n = 3
Experimental: as §2, §3, §4

[10] = system: H460 cells; experiment: apoptosis induction in H460 cells, annexin V/PI staining; settings: etoposide 50 μM
[11] = PS:PC (2:8) liposomes, PC response subtracted, Tris-HCl pH 8.0, 2 mM CaCl2, Scrubber, value from picture

Molecule: CC[C@@]1(O)C(=O)OCc2c1cc1n(c2=O)Cc2cc3ccccc3nc2-1 [camptothecin]
- in vivo apoptosis in tumors (TUNEL) [1]: increased area of in vivo apoptosis

Molecule: CLSYYPSYC [PSP1, peptide-based phosphatidylserine (PS) indicator PSP1 (…)]
- Kd ([2]; PS liposomes, PC liposome response subtracted, Tris-HCl pH 8.0, 2 mM CaCl2, read-out: in vitro binding affinity (equilibrium binding constant, KD)): 10.7 µM
- PS binding kinetics in words ([2]; PS liposomes, real-time association and dissociation): binds much more slowly to PS but, once bound, forms a more stable complex (slow dissociation) compared with annexin V; also recorded: dissociation of PSP1 was slow, even slower than that of annexin V
- association rate constant (Kon) [2, 11]: 5.05±3.00×10^1 M^-1S^-1
- dissociation rate constant (Koff) [2, 11]: 2.87±0.95×10^-4 S^-1
- binding to apoptotic H460 cells (FACS) ([3]; etoposide 50 μM 22 hrs, 2, 10, 20, 50 μg/ml, binding buffer 10 mM Hepes pH 7.4, 150 mM NaCl ± 2 mM CaCl2, 4°C, 1 hr): specifically bound to apoptotic H460 cells in a concentration-dependent manner; also recorded: specifically binds to apoptotic cells through PS exposed on the apoptotic cell surface
- apoptotic cell-specific signal (confocal microscopy) [4]: apoptotic cell-specific signals were clearly detected; also recorded: targets apoptotic tumor cells more efficiently than annexin V does
- binding to untreated cancer cells [5]: a small degree of binding to untreated cancer cells
- duration of in vivo fluorescence signal in tumor region ([6]; Cy7.5-labeled, i.v. tail vein, camptothecin 10 mg/kg 24 hrs before, PSP1 10 μg/200 μl (23.16 μM), annexin V 100 μg/200 μl (14.3 μM)): more than 12 hrs
- in vivo tumor homing ([6]; Cy7.5-labeled): generated apoptosis/tumor-specific signals after cancer treatment in the animal model; also recorded: appeared higher than those of annexin V for the entire measurement period; also recorded: rapidly observed in the tumor region; also recorded: specifically homed to apoptotic cells in tumors after cancer therapy; also recorded: specifically targeted apoptotic cells in tumors following systemic administration
- tumor-homing fluorescence signal in tumor cryosections [7]: significantly more prominent than that of annexin V
- interaction with PS on apoptotic cells [8]: specific interaction with PS on apoptotic cells

Molecule: CLSAAPSYC [AA-PSP1, mutant PSP1 peptide with alanine instead of tyrosine, …]
- binding of PSP1 mutants to apoptotic H460 cells (FACS) [3]: significantly diminished by replacement of tyrosine by alanine

Molecule: CLSFFPSYC [FF-PSP1, mutant PSP1 peptide with phenylalanine instead of tyrosine, …]
- binding of PSP1 mutants to apoptotic H460 cells (FACS) [3]: bound to the apoptotic cells as much as PSP1
- binding to normal H460 cells (FACS) [9]: nonspecific binding to the normal cells

Molecule: NSSSVDK (also: FITC label, position not given here) [control peptide, control peptide (NSSSVDK), reference compound]
- non-specific fluorescence in surrounding non-tumor tissues ([6]; Cy7.5-labeled control peptide 100 μg/200 μl i.v., camptothecin-treated tumor-bearing mice): surrounding non-tumor tissues absorbed fluorescence at the early time points, this non-specific signal vanished over time
- in vivo tumor homing ([6]; Cy7.5-labeled): did not show specific tumor-homing signals
- tumor-homing fluorescence signal in tumor cryosections [7]: No signals were observed in tumor tissues

Molecule: COc1cc([C@@H]2c3cc4c(cc3[C@@H](O[C@@H]3O[C@@H]5CO[C@@H](C)O[C@H]5[C@H](O)[C@H]3O)[C@H]3COC(=O)[C@H]23)OCO4)cc(OC)c1O [etoposide]
- effect of etoposide on H460 cells in words [10]: without evidence of significant necrosis; also recorded: caused PS exposure; also recorded: did not significantly change the cell shape or number
- H460 cells undergoing apoptosis ([10]; 22 hrs, serum-free media, annexin V/PI FACS): more than 50%
